Active and inactive are the calls of the source.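 How the source made its calls: active means compounds giving half or more protection of infected cells from virus-caused growth loss, again on retest; inactive means the rest.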 Where a SMILES comes first, the peptide text is derived from it. [ ]: non-standard residue; d: D form. The star is where a group is joined. ξ: configuration not given here. ξF = NC(Cc1ccccc1)C(=O)O; Cbz = O=C(OCc1ccccc1)*; Boc = CC(C)(C)OC(=O)*; Aib = CC(C)(N)C(=O)O; OBn = c1ccc(CO*)cc1; NHNH2 = NN*
System: CEM cells HIV-1 protection, formazan growth assay
Experiment: NCI AIDS Antiviral Assay
Settings: for IC50: measured here: growth of uninfected CEM cells
Procedure, shortened: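 Category rules: moderately active means at least 50% protection on retest, and confirmed active means 100% protection reproducibly. The underlying data came from a formazan growth assay in HIV-1-infected CEM cells.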

SMILES | EC50 [µM] | IC50 [µM] | outcome
O=C(O)c1cccc(SS(=O)(=O)c2cccc(C(=O)O)c2)c1 | 27.5 | 162 | –
Nc1ccc(/C=C/c2ccc(N=Nc3cc(S(=O)(=O)O)c4cccnc4c3O)cc2S(=O)(=O)O)c(S(=O)(=O)O)c1 | 34.7 | > 200 | –
N#Cc1nc(C2CCC2)oc1N | > 200 | > 200 | –
CCOC(=O)C(c1ccsc1)P(=O)(OCC)OCC (stereo unspecified) | > 813 | 28.2 | –
CNC(=S)N/N=C(\C)c1cc(OC)ccc1O | > 200 | 14.5 | –
Cc1ccc(S(=O)(=O)N(CCN)c2cc3c4c(c2)Oc2cccc5c2C4c2c(cccc2O3)O5)cc1 | > 200 | 35.5 | –
CCCCCCCCCOC(=S)NCCCCC | – | – | inactive
CCN(CC)CCOC(=O)OCCCCOC(=O)OCCN(CC)CC | > 200 | > 200 | –
Oc1ccc(S)cc1CNc1ccccc1 | > 200 | 22.4 | –
c1ccc(C2=NC3(CCCCC3)N=C2c2ccccc2)cc1 | > 200 | 135 | –
CN1C2CCCC1CC(=O)NC2 (stereo unspecified) | > 1480 | > 1480 | –
CC(C)CCCC(C)[C@H]1CC[C@H]2[C@H]3CC[C@H]4C[C@@H](CCC=C(c5cc(Cl)c(O)c(C(=O)O)c5)c5cc(Cl)c(O)c(C(=O)O)c5)CC[C@]4(C)[C@H]3CC[C@]12C (stereo partly specified) | > 200 | > 200 | –
O=NNc1ccc(Sc2ccc(NN=O)cn2)nc1 | > 100 | > 100 | –
NC(=O)CNC(=O)c1ccccc1SC(=O)NCCCCl | 3.72 | 64.6 | –
O=C(NC1CC(NC(=O)OCc2ccccc2)C2c3ccccc3C12)OCc1ccccc1 (stereo unspecified) | – | – | inactive
CNC(=O)N(C1CCCCC1)C1CCCCC1 | > 200 | 110 | –
CC(C)(C)OC(=O)NC(Cc1ccc(O)cc1)C(=O)N1CCCC1C(=O)O (stereo not drawn) (Boc-Tyr-Pro-OH; configuration not given here) | > 661 | 269 | –
Nc1ncnc2c1ncn2C1CC(CO)CO1 (stereo unspecified) | 209 | 214 | –
COc1cc(NC=O)c2c(c1)SCCC(=O)N2 | > 200 | > 200 | –
O=NN1C(c2ccccc2)CC(=NO)CC1c1ccccc1 (stereo unspecified) | > 200 | 129 | –
Cc1ccc(S(=O)(=O)N/N=C2/CC3CCC4CC2CC34)cc1 (stereo unspecified) | > 200 | 79.4 | –
CC1CC/C(=C\c2ccc(F)cc2)C(=O)/C1=C/c1ccc(F)cc1 (stereo unspecified) | > 19.5 | 9.33 | –

SMILES | EC50 [µM] | IC50 [µM] | outcome
CC1(C)CCCCCCCCCC2CC2CCC(C)(C)C1=O (stereo unspecified) | > 200 | > 100 | –
CCOC(=O)C[P+](c1cccc(OC)c1)(c1cccc(OC)c1)c1cccc(OC)c1 | > 200 | 46.8 | –
CCn1c(O)c(C=Nc2ccccc2)s/c1=N/Nc1nc(C)c(C(C)=O)s1 | > 200 | > 200 | –
CN(C)c1nc2n(CCO)ccnc-2c(=O)n1 | > 100 | > 100 | –
CCOC(=O)NC(=O)c1cn(CCOC(=O)NCCCCCCNC(=O)OCCn2cc(C(=O)NC(=O)OCC)c(=O)[nH]c2=O)c(=O)[nH]c1=O | – | – | inactive
COc1c(OC(C)C)cc2cc(O)c(C(=O)NC3Cc4ccc(c(Cl)n4)O[C@@H]4C=C5C#C/C(=C\C#CC6OC56C4OC4CC(C)(O)C(O)C(C)O4)C(OC4CC(O)C(N(C)C)C(C)O4)COC3=O)cc2c1OC (stereo partly specified) | – | – | inactive
CCOC(=O)C1=C(C)NC(CO)=C(C(=O)OCC)C1c1cccc([N+](=O)[O-])c1 (stereo unspecified) | > 2 | 0.355 | –
COCc1cn(C2CCC(CO)O2)c(=O)[nH]c1=O (stereo unspecified) | > 490 | 269 | –
CC1(C)CCOC(=O)C(Cl)CC1Cl (stereo unspecified) | > 200 | > 200 | –
CC(=O)c1cccc(NCn2nnc3ccccc32)c1 | > 200 | 95.5 | –
Cn1ccc2c(C(=O)c3ccccc3)cccc2c1=O | – | – | inactive
N=C1OC(CN2CCN(c3ccccc3)CC2)CN1C(=O)Nc1ccccc1 (stereo unspecified) | > 200 | > 200 | –
Cc1c(Cl)c(=O)oc2cc(OCC(=O)c3ccccc3)ccc12 | > 100 | > 100 | –
COc1cccc(/C(Cl)=C(\C=O)c2cccc(OC)c2)c1 | > 17.4 | 9.12 | –
N#C/C(C(=O)Nc1ccccc1)=C(/N)N1CCOCC1 | > 200 | > 200 | –
CCOP(=O)(CP(=O)(OCC)OCC)OCC.[Cl][Sn]([Cl])([c]1ccccc1)[c]1ccccc1 | > 11.5 | 0.603 | –
O=S(=O)(/C=N\N=P(c1ccccc1)(c1ccccc1)c1ccccc1)c1ccccc1-c1ccccc1 | > 200 | 107 | –
COc1ccc(N[C@H]([C@@H](c2ccccc2)S(=O)c2ccc(C)cc2)C(F)(F)F)cc1 (stereo partly specified) | > 200 | 34.7 | –
NC(=O)CNC(=O)[C@@H]1C[C@@H](OCCC(=O)O)CN1C(=O)OCc1ccccc1 | > 200 | > 200 | –
C/C(=N\NC(=S)NC(C)(C)C)c1ccccn1 | > 200 | 0.0631 | –
COc1cc(N=Nc2cc(NC(C)=O)c(N=Nc3ccc(S(=O)(=O)O)cc3)cc2S(=O)(=O)O)c(C)cc1N=Nc1ccc(NC(=O)c2ccc(N)cc2)cc1C | 8.71 | 97.7 | –
Cc1nc(N)nc(N)c1N1CCN(c2ccc(C#N)cc2)CC1 | > 100 | > 100 | –

SMILES | EC50 [µM] | IC50 [µM] | outcome
O=C(O)C12CC=CCC1(C(=O)O)CC=CC2 (stereo unspecified) | > 200 | > 200 | –
O=C1C=C(c2ccccc2)OC1(Cl)c1ccccc1 (stereo unspecified) | > 200 | 38 | –
O=C(Nc1nccs1)c1cc(C2=CC=CC([N+](=O)[O-])C=C2)nc(=S)[nH]1 (stereo unspecified) | > 95.5 | > 95.5 | –
CC(C)(NC(=O)OCc1ccccc1)C(=O)NC(Cc1ccccc1)C(=O)NN (stereo unspecified) (Cbz-[Aib]-[ξF]-NHNH2) | > 200 | > 200 | –
Cc1c(NC(=O)OCc2ccccc2)no[n+]1[O-] | > 550 | 129 | –
CC(=O)NC(C(=O)N1CCCC1C(=O)OCc1ccccc1)C(C)C (stereo not drawn) (Ac-Val-Pro-OBn; configuration not given here) | > 200 | 112 | –
CCCCCCCCCCCCC/C=C/[C@@H](OC(=O)c1ccccc1)C(CO)N=[N+]=[N-] (stereo partly specified) | – | – | inactive
C#CCNC(CCCN=C(N)N)C(=O)O (stereo unspecified) | > 200 | > 200 | –
CCOCNC(=O)N(COCC)COCC | > 398 | > 398 | –
O=C(CC(C(=O)c1ccsc1)c1cccs1)c1cccs1 (stereo unspecified) | > 21.9 | > 21.9 | –
CC(NC(=O)C(NC(=O)OC(C)(C)C)C(C)C)C(=O)N1CCCC1C(=O)NCC(=O)NC(C(=O)NCC(=O)OCc1ccccc1)C(C)C (stereo unspecified) (Boc-VAPGVG-OBn; configuration not given here) | > 200 | > 200 | –
CCC(C)[C@H](NC(=O)N[C@H](C)c1ccccc1)C(=O)OC (stereo partly specified) | > 200 | > 200 | –
O=[N+]([O-])O | > 200 | > 200 | –
CN(C)c1ccc(/C=C/c2sc3ccccc3[n+]2C)cc1 | > 47.9 | 0.575 | –
O=c1cc(CC(O)(C(F)(F)Cl)C(F)(F)Cl)[nH]n1-c1ccccc1 | > 200 | 117 | –
Cc1ccc(S(=O)(=O)NNC2Oc3cc4c(cc3C(c3ccccc3O)C2C)OCO4)cc1 (stereo unspecified) | > 200 | 26.3 | –
N#C/C(=C\c1cccs1)c1ccccc1 | > 200 | 117 | –
CN(C)/C(N)=N/C(N)=Nc1cccc(Cl)c1 | > 200 | 83.2 | –
c1ccc(-c2nc(-c3ccccc3)n3c(-c4ccccc4)nnc3n2)cc1 | > 14.8 | > 14.8 | –
CC12O[C@]3([C@H](C(=O)N4CCOC43C)[C@H]1Cl)[C@H]1O[C@H]12 (stereo partly specified) | – | – | inactive
O=[N+]([O-])c1cc2ccc(N(CCO)CCO)nc2nc1N(CCO)CCO | > 200 | > 200 | –
CCOC(=O)c1sc2c(C(=O)OCC)n3cc(C)cc(C)c3c2c1O | – | – | inactive

SMILES | EC50 [µM] | IC50 [µM] | outcome
CCOP(=O)(OCC)OC1C=CC2CCC1C2 (stereo unspecified) | > 191 | > 191 | –
O=C(/C=C/c1ccccc1)NC1C=Nc2ccc(Cl)cc2NC1=O (stereo unspecified) | > 200 | 25.7 | –
CCN(CC)CCNc1cccc2oc3ccc(OS(=O)(=O)c4ccc(C)cc4)cc3c(=O)c12 | > 15.1 | 6.31 | –
CCOC(=O)Cc1nn2c(=O)cc(C)nc2s1 | > 200 | > 200 | –
NCCCNCCSSCc1ccccc1CSSCCNCCCN | – | – | inactive
Cn1c2c(c(=O)n(C)c1=O)C(C(=O)O)CC(=O)N2 (stereo unspecified) | > 200 | 170 | –
CC(C)(C)c1cc2ccc(C(N)=O)cc2c(=O)[nH]1 | > 537 | 302 | –
Nc1cc(N)c(N=Nc2ccc(/C=C\c3ccc(N=Nc4c(N)cc(N)cc4C(=O)O)cc3S(=O)(=O)O)c(S(=O)(=O)O)c2)c(C(=O)O)c1.[Zn+2] | > 30.2 | 23.4 | –
CCCNC(=O)N(C(C)C)S(=O)(=O)c1ccc(Cl)cc1 | – | – | inactive
Oc1cc(N2CCCC2)ccc1/C=N/N1C(=S)N(c2ccccc2)C(=Nc2ccccc2)C1=Nc1ccccc1 | > 100 | > 100 | –
O=[N+]([O-])c1ccccc1S(=O)(=O)N1CCCc2cc(Cl)ccc21 | > 200 | 16.6 | –
COc1ccc(NC(=O)CC(=O)NNC(Sc2ccccc2)c2cc(N=Nc3ccc(Br)cc3)ccc2O)cc1 (stereo unspecified) | – | – | inactive
N=C(N)SCc1cccc2c(=O)cc(-c3ccccc3)oc12 | > 646 | 5.62 | –
CCOP(=O)(OCC)C(C(=O)OC)C(=O)C(=O)Nc1cccc(O)c1 (stereo unspecified) | > 676 | > 676 | –
CC(C)C1/C(=N/O)CC(c2ccccc2)N(N=O)C1c1ccccc1 (stereo unspecified) | > 200 | 66.1 | –
O=c1c2cc(-c3ccccc3)cnc2sn1-c1ccc(Br)cc1 | 110 | 186 | –
COc1ccc(/C=N/Nc2nc3ccccc3c(=O)n2-c2ccccc2)cc1 | > 200 | > 200 | –
O=C(c1ccc(Cl)cc1)c1ccc(OCC(=O)N2CCN(c3ccccc3)CC2)cc1 | > 12 | > 12 | –
O=C(N/C(=C\c1cc(Cl)ccc1Cl)c1nc2ccccc2[nH]1)c1ccccc1 | – | – | inactive
CC1=CC(C)(C)NC(=S)N1CCO | – | – | inactive
Nc1nc(SCc2ccccn2)c2ncn(C3CCCC3)c2n1 | > 200 | 110 | –

— PubChem BioAssay AID179 (DTP/NCI, 2004)
